# Results: ChEMBL document CHEMBL1201862, “PubChem BioAssay data set” (2004)
#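 The compound was tested at five concentrations on cells cultured in 96-well plates, with a 48-hour exposure period. Abbreviation: GI50, concentration required for 50% inhibition of growth.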 The source made the active and inactive calls. No stated cut-off is given here; in the data, active = GI50 up to about 1.1 µM and inactive = higher.
# What was measured:
# Assay in all cases: growth of human tumour cells (NCI), 48 h
# PC-3 = system: PC-3
# HOP-92 = system: HOP-92
# M14 = system: M14
# A549 = system: A549
# COLO 205 = system: COLO 205
# MDA-N = system: MDA-N
# MCF7 = system: MCF7
# OVCAR-4 = system: OVCAR-4
# OVCAR-3 = system: OVCAR-3
# SNB-19 = system: SNB-19
# RXF 393 = system: RXF 393
# IGROV-1 = system: IGROV-1
# SK-MEL-5 = system: SK-MEL-5
# HL-60 = system: HL-60
# KM12 = system: KM12
# Hs-578T = system: Hs-578T
# MOLT-4 = system: MOLT-4
# HCT-15 = system: HCT-15
# T47D = system: T47D
# HT-29 = system: HT-29
SMILES,GI50 (PC-3),GI50 (HOP-92),GI50 (M14),GI50 (A549),GI50 (COLO 205),GI50 (MDA-N),GI50 (MCF7),GI50 (OVCAR-4),GI50 (OVCAR-3),GI50 (SNB-19),GI50 (RXF 393),GI50 (IGROV-1),GI50 (SK-MEL-5),GI50 (HL-60),GI50 (KM12),GI50 (Hs-578T),GI50 (MOLT-4),GI50 (HCT-15) [µM],GI50 (T47D),GI50 (HT-29)
CN(CCc1ccccn1)C(=S)N/N=C/c1ccccn1,0.0456 µM (active),0.105 µM (active),< 0.0226 µM (active),0.285 µM (active),< 0.01 µM (active),0.551 µM (active),< 0.01 µM (active),0.112 µM (active),< 0.01 µM (active),4.69 µM (inactive),0.126 µM (active),0.0184 µM (active),0.11 µM (active),< 0.01 µM (active),0.0719 µM (active),20 µM (inactive),< 0.01 µM (active),0.0148,< 0.01 µM (active),< 0.0473 µM (active)
CC(=O)OC1C[C@@H](C)C2(C[C@H](O)c3ccoc3)C(=O)OC[C@]13C2CCC(O)C31CO1 (stereo not given in full),> 100 µM (inactive),> 100 µM (inactive),> 100 µM (inactive),> 100 µM (inactive),> 100 µM (inactive),> 100 µM (inactive),> 100 µM (inactive),> 100 µM (inactive),> 100 µM (inactive),> 100 µM (inactive),> 100 µM (inactive),> 100 µM (inactive),> 100 µM (inactive),> 10 µM (inactive),> 100 µM (inactive),> 100 µM (inactive),> 100 µM (inactive),> 100,1.51 µM (inactive),> 100 µM (inactive)
CC(C)(C)NC(=O)C12C3C4C1C1C2C3C41C(=O)NC(C)(C)C (stereo not given),> 100 µM (inactive),15.1 µM (inactive),> 100 µM (inactive),> 100 µM (inactive),> 100 µM (inactive),> 100 µM (inactive),> 100 µM (inactive),> 100 µM (inactive),> 100 µM (inactive),47.8 µM (inactive),40.8 µM (inactive),> 100 µM (inactive),> 100 µM (inactive),> 100 µM (inactive),> 100 µM (inactive),32.8 µM (inactive),78.3 µM (inactive),> 100,> 100 µM (inactive),> 100 µM (inactive)
COC(=O)C1=C(O)C(C(=O)OC)[C@]2(O)[C@H](C(=O)OC)[C@H]1C[C@@H](c1ccc(O)cc1)[C@H]2C(=O)OC (stereo not given in full),19.9 µM (inactive),79.8 µM (inactive),25.4 µM (inactive),32.5 µM (inactive),31.2 µM (inactive),20.1 µM (inactive),22.6 µM (inactive),36.4 µM (inactive),11.5 µM (inactive),30.2 µM (inactive),15.8 µM (inactive),41.2 µM (inactive),37.3 µM (inactive),27.2 µM (inactive),21.8 µM (inactive),26.1 µM (inactive),30.3 µM (inactive),26.1,23.9 µM (inactive),27.5 µM (inactive)
C/C(=N\Nc1nc2ccccc2[nH]1)c1ncccn1,1.92 µM (inactive),0.0552 µM (active),0.0417 µM (active),0.0682 µM (active),< 0.0197 µM (active),0.388 µM (active),0.0321 µM (active),0.0528 µM (active),0.871 µM (active),0.0879 µM (active),0.0771 µM (active),< 0.031 µM (active),0.0574 µM (active),< 0.01 µM (active),0.136 µM (active),12.1 µM (inactive),< 0.01 µM (active),0.0302,0.0215 µM (active),0.0236 µM (active)
O=C(O)Cc1ccc(Nc2nc3cc(C(F)(F)F)ccc3nc2C(=O)O)cc1,> 100 µM (inactive),> 100 µM (inactive),> 100 µM (inactive),> 100 µM (inactive),> 100 µM (inactive),> 100 µM (inactive),> 100 µM (inactive),> 100 µM (inactive),> 100 µM (inactive),> 100 µM (inactive),> 100 µM (inactive),> 100 µM (inactive),> 100 µM (inactive),> 100 µM (inactive),> 100 µM (inactive),> 100 µM (inactive),> 100 µM (inactive),> 100,> 100 µM (inactive),> 100 µM (inactive)
CN(C)Cc1cc(C(=O)/C=C/c2c(Cl)cccc2Cl)cc(CN(C)C)c1O,5.64 µM (inactive),3.05 µM (inactive),4.91 µM (inactive),11.5 µM (inactive),2.96 µM (inactive),3.67 µM (inactive),3.71 µM (inactive),8.55 µM (inactive),5.7 µM (inactive),14.8 µM (inactive),5.7 µM (inactive),7.83 µM (inactive),3.76 µM (inactive),2.07 µM (inactive),2.65 µM (inactive),14 µM (inactive),4.19 µM (inactive),10.8,16.4 µM (inactive),3.07 µM (inactive)
